Earlier results in patent US20240252403A1, “SKIN CARE COMPOSITION FOR APPLICATION TO SKIN” (COSMED PHARMACEUTICAL CO., LTD., priority 2021, published 2024).

In the case of `N[C@@H](CCC(=O)N[C@@H](CS)C(=O)NCC(=O)O)C(=O)O` [glutathione], the saturation solubility is listed as 13.0 g/100 g.
For `Cc1ncc(CO)c(CO)c1O.Cl` [pyridoxine hydrochloride], the saturation solubility is given as 22.0 g/100 g.
In the case of `NCCS(=O)(=O)O` [taurine], the saturation solubility is given as 7.9 g/100 g.
